system: sodium channels; format: cell-based; settings: read-out: IC50 (μM), sodium channel-inhibiting activity; rat fetal cultured hippocampal neurons, SBFI fluorescence in the presence of 4-aminopyridine, 5 minutes after addition, 1 μM tetrodotoxin = 100%

SMILES | IC50 [µM]
C[C@@H]1CN(Cc2ncc[nH]c2=O)CC[C@H]1C(=O)Cc1ccccc1F (relative stereo) [Example 366, trans-3-[4-[2-(2-Fluorophenyl)acetyl]-3-methylpiperidino]methyl-1H-pyrazin-2-one] | 4.2
C[C@H]1C[C@H](C(=O)Cc2ccccc2F)CCN1Cc1ncc[nH]c1=O (relative stereo) [Example 414, trans-3-[4-[2-(2-Fluorophenyl)acetyl]-2-methylpiperidino]methyl-1H-pyrazin-2-one] | 7.9
O=c1cncc(CCN2CCCC(COc3ccccc3F)C2)[nH]1 (centres unmarked) [Example 117, 6-[2-[3-(2-Fluorophenoxymethyl)piperidino]ethyl]-1H-pyrazin-2-one] | 4.4
O=c1cncc(CCN2CCC(O)(COc3ccccc3F)CC2)[nH]1 [Example 118, 6-[2-[4-Hydroxy-4-(2-fluorophenoxymethyl)piperidino]ethyl]-1H-pyrazin-2-one] | 3.1
O=c1cncc(CCN2CCC3(CC2)CC(Oc2ccccc2F)C3)[nH]1 [Example 119, 6-[2-[2-(2-Fluorophenoxy)-7-azaspiro[3.5]non-7-yl]ethyl]-1H-pyrazin-2-one] | 8.4
O=c1cncc(CCN2CCC(O)(C#Cc3ccccc3F)CC2)[nH]1 [Example 120, 6-[2-[4-Hydroxy-4-[(2-fluorophenyl)ethynyl]piperidino]ethyl]-1H-pyrazin-2-one] | 8.5
Cc1ccccc1OCC1(C#N)CCN(Cc2ncc[nH]c2=O)CC1 [Example 121, 1-(3-Oxo-3,4-dihydro-2-pyrazinylmethyl)-4-(2-methylphenoxymethyl)piperidine-4-carbonitrile] | 5.7
Cc1ccccc1CCC1(O)CCN(Cc2ccc[nH]c2=O)CC1 [Example 125, 3-[4-Hydroxy-4-[2-(2-methylphenyl)ethyl]piperidino]methyl-1H-pyridin-2-one] | 5
O=c1[nH]ccnc1CN1CCC(CC(O)c2ccccc2F)CC1 (centres unmarked) [Example 144, 3-[4-[2-(2-Fluorophenyl)-2-hydroxyethyl]piperidino]methyl-1H-pyrazin-2-one] | 5.8
COc1ccccc1CCC1CCCN(Cc2ncc[nH]c2=O)C1 (centres unmarked) [Example 155, 3-[3-[2-(2-Methoxyphenyl)ethyl]piperidino]methyl-1H-pyrazin-2-one] | 3.5
O=c1[nH]ccnc1CN1CCC(CCOc2ccccc2F)CC1 [Example 159, 3-[4-[2-(2-Fluorophenoxy)ethyl]piperidino]methyl-1H-pyrazin-2-one] | 9.4
COc1cccc(OCC2CCN(Cc3ncc[nH]c3=O)CC2)c1 [Example 161, 3-[4-(3-Methoxyphenoxymethyl)piperidino]methyl-1H-pyrazin-2-one] | 3.5
CCOc1ccccc1OCC1CCN(Cc2ncc[nH]c2=O)CC1 [Example 165, 3-[4-(2-Ethoxyphenoxymethyl)piperidino]methyl-1H-pyrazin-2-one] | 8.4
N#Cc1ccccc1OCC1CCN(Cc2ncc[nH]c2=O)CC1 [Example 166, 3-[4-(2-Cyanophenoxymethyl)piperidino]methyl-1H-pyrazin-2-one] | 8.7
O=c1[nH]ccnc1CN1CCC(/C=C/c2sccc2F)CC1 [Example 173, (E)-3-[4-[2-(3-Fluoro-2-thienyl)vinyl]piperidino]methyl-1H-pyrazin-2-one] | 4.3
CC(Oc1ccccc1F)C1CCN(Cc2ncc[nH]c2=O)CC1 (centres unmarked) [Example 175, 3-[4-[1-(2-Fluorophenoxy)ethyl]piperidino]methyl-1H-pyrazin-2-one] | 2.6
Cc1ccc(-c2ccccc2)n1CC1CCN(Cc2ncc[nH]c2=O)CC1 [Example 182, 3-[4-(2-Methyl-5-phenylpyrrol-1-yl)methyl-piperidino]methyl-1H-pyrazin-2-one] | 7.8
O=c1[nH]ccnc1CN1CCC(c2nc(-c3ccc(F)cc3)no2)CC1 [Example 189, 3-[4-[3-(4-Fluorophenyl)-1,2,4-oxadiazol-5-yl]piperidino]methyl-1H-pyrazin-2-one] | 7.2
COC(Cc1ccccc1F)C1CCN(Cc2ncc[nH]c2=O)CC1 (centres unmarked) [Example 190, 3-[4-[2-(2-Fluorophenyl)-1-methoxyethyl]piperidino]methyl-1H-pyrazin-2-one] | 1.2
O=C(Cc1cccc(F)c1)C1CCN(Cc2ncc[nH]c2=O)CC1 [Example 191, 3-[4-[2-(3-Fluorophenyl)acetyl]piperidino]methyl-1H-pyrazin-2-one] | 7.1
O=C(Cc1cc(F)ccc1F)C1CCN(Cc2ncc[nH]c2=O)CC1 [Example 194, 3-[4-[2-(2,5-Difluorophenyl)acetyl]piperidino]methyl-1H-pyrazin-2-one] | 6.6
O=C(Cc1ccccc1)C1CCN(Cc2ncc[nH]c2=O)CC1 [Example 196, 3-[4-(2-Phenylacetyl)piperidino]methyl-1H-pyrazin-2-one] | 6.2
O=c1[nH]ccnc1CN1CCC(COc2ccc(F)cc2)CC1 [Example 199, 3-[4-(4-Fluorophenoxymethyl)piperidino]methyl-1H-pyrazin-2-one] | 6.2
O=c1[nH]ccnc1CN1CCC(C(Cc2ccccc2F)=NO)CC1 [Example 202, 3-[4-[1-Hydroxyimino-2-(2-fluorophenyl)ethyl]piperidino]methyl-1H-pyrazin-2-one] | 4.9

SMILES | IC50 [µM]
CON=C(Cc1ccccc1F)C1CCN(Cc2ncc[nH]c2=O)CC1 [Example 203, 3-[4-[2-(2-Fluorophenyl)-1-(methoxyimino)ethyl]piperidino]methyl-1H-pyrazin-2-one] | 2.3
O=C(Cc1ccccc1F)C1CCN(Cc2nc3ccccc3[nH]c2=O)CC1 [Example 206, 3-[4-[2-(2-Fluorophenyl)acetyl]piperidino]methyl-1H-quinoxalin-2-one] | 5.2
O=c1[nH]ccnc1CN1CCCCC1CCOc1ccccc1F (centres unmarked) [Example 209, 3-[2-[2-(2-Fluorophenoxy)ethyl]piperidino]methyl-1H-pyrazin-2-one] | 2.1
O=c1[nH]ccnc1CN1CCC(O)(COc2ccccc2F)CC1 [Example 211, 3-[4-Hydroxy-4-(2-fluorophenoxymethyl)piperidino]methyl-1H-pyrazin-2-one] | 8.2
O=c1[nH]ccnc1CN1CCC(c2nc(-c3ccccc3)no2)CC1 [Example 215, 3-[4-(3-Phenyl-1,2,4-oxadiazol-5-yl)piperidino]methyl-1H-pyrazin-2-one] | 4.1
CCOC(=O)C1(CCc2ccccc2)CCN(Cc2ncc[nH]c2=O)CC1 [Example 216, 3-[4-(Ethoxycarbonyl)-4-(2-phenylethyl)piperidino]methyl-1H-pyrazin-2-one] | 3.2
O=c1[nH]ccnc1CN1CCC(O)(C#Cc2ccccc2F)CC1 [Example 217, 3-[4-(2-Fluorophenyl)ethynyl-4-hydroxypiperidino]methyl-1H-pyrazin-2-one] | 1.8
Cc1ccccc1C#CC1(O)CCN(Cc2ncc[nH]c2=O)CC1 [Example 218, 3-[4-(2-Methylphenyl)ethynyl-4-hydroxypiperidino]methyl-1H-pyrazin-2-one] | 3.6
O=c1[nH]ccnc1CN1CCC(CO)(CCc2ccccc2)CC1 [Example 219, 3-[4-Hydroxymethyl-4-(2-phenylethyl)piperidino]methyl-1H-pyrazin-2-one] | 1.6
N#CC1(COc2ccccc2F)CCN(Cc2ncc[nH]c2=O)CC1 [Example 221, 3-[4-Cyano-4-(2-fluorophenoxymethyl)piperidino]methyl-1H-pyrazin-2-one] | 4.9
O=c1[nH]ccnc1CN1CCC2(CC1)CC(Oc1ccccc1F)C2 [Example 226, 3-[2-(2-Fluorophenoxy)-7-azaspiro[3.5]non-7-yl]methyl-1H-pyrazin-2-one] | 4.5
O=c1cncc(CCN2CCC(COc3cccc(F)c3)CC2)[nH]1 [Example 238, 6-[2-[4-(3-Fluorophenoxymethyl)piperidino]ethyl]-1H-pyrazin-2-one] | 5.6
COc1ccccc1OCC1CCN(CCc2cncc(=O)[nH]2)CC1 [Example 240, 6-[2-[4-(2-Methoxyphenoxymethyl)piperidino]ethyl]-1H-pyrazin-2-one] | 6.4
O=c1cncc(CCN2CCC(COc3cccc(F)c3F)CC2)[nH]1 [Example 242, 6-[2-[4-(2,3-Difluorophenoxymethyl)piperidino]ethyl]-1H-pyrazin-2-one] | 6.2
O=c1cncc(CCN2CCC(C#Cc3ccccc3F)CC2)[nH]1 [Example 244, 6-[2-[4-[(2-Fluorophenyl)ethynyl]piperidino]ethyl]-1H-pyrazin-2-one] | 3.1
O=c1cncc(CCN2CCC(COc3ccccc3)CC2)[nH]1 [Example 245, 6-[2-[4-(Phenoxymethyl)piperidino]ethyl]-1H-pyrazin-2-one] | 4.4
Cn1c(CCN2CCC(COc3ccccc3F)CC2)cncc1=O [Example 249, 6-[2-[4-(2-Fluorophenoxymethyl)piperidino]ethyl]-1-methyl-1H-pyrazin-2-one] | 3.2
CCOC(=O)C1(CCc2ccccc2)CCN(Cc2ccc[nH]c2=O)CC1 [Example 255, 3-[4-(Ethoxycarbonyl)-4-(2-phenylethyl)piperidino]methyl-1H-pyridin-2-one] | 3.1
O=c1[nH]ccnc1CN1CCC(CSc2ccccc2F)CC1 [Example 336, 3-[4-[(2-Fluorophenylthio)methyl]piperidino]methyl-1H-pyrazin-2-one] | 4.7
O=c1[nH]ccnc1CN1CCC(C[S+]([O-])c2ccccc2F)CC1 (centres unmarked) [Example 337, 3-[4-[(2-Fluorophenylsulfinyl)methyl]piperidino]methyl-1H-pyrazin-2-one] | 6.5
O=c1[nH]ccnc1CN1CCC(CS(=O)(=O)c2ccccc2F)CC1 [Example 338, 3-[4-[(2-Fluorophenylsulfonyl)methyl]piperidino]methyl-1H-pyrazin-2-one] | 9.8
O=c1[nH]ccnc1CN1CCOC(CCc2ccccc2F)C1 (centres unmarked) [Example 340, 3-[3-[2-(2-Fluorophenyl)ethyl]morpholin-1-yl]methyl-1H-pyrazin-2-one] | 7.1
O=c1[nH]ccnc1CN1CCOC(/C=C/c2ccccc2F)C1 (centres unmarked) [Example 341, (E)-3-[3-[2-(2-Fluorophenyl)vinyl]morpholin-1-yl]methyl-1H-pyrazin-2-one] | 7.1

Reference: patent US20050245527A1, “Nitrogen containing heterocyclic compounds and medicines containing the same” (priority 2002, published 2005)
